According to patent US20180280319A1, “COMPOUNDS AND COMPOSITIONS FOR TREATMENT OF BREAST CANCER” (UNIVERSITY OF THE SCIENCES, priority 2017, published 2018):
“Also recorded” adds a separate entry of the source.

Columns and labels:
[1] = test system: MDA-MB-231 cells; assay: ROS detection (Muse oxidative stress kit) in MDA-MB-231 cells; format: cell-based, human; settings: 10 μM, 4 hrs
Description: (§1) FIG. 4B is a set of images of MDA-MB-231 (TNBC cells) co-cultured with MCF-10A (normal mammary cells) after exposure to DMSO control (left) as well as 3D (right). FIGS. 5A-5E illustrate the finding that 3D induces a rise in reactive oxygen species (ROS) inside TNBC cells and not normal healthy cells.
(§2) Manipulation of reactive oxygen species (ROS) levels is one potential mechanistic target for anti-cancer molecules because high levels of ROS can promote cell death. […] Levels of ROS were detected by assessing the conversion of a non-fluorescent compound (dihydroethidium) to its oxidized metabolite (ethidium bromide) in the presence of intracellularly accumulated ROS following 3D administration using a Muse oxidative stress kit.

[2] = test system: BT-549 TNBC cell line; assay: Caspase 3/7 activation in BT-549 cells; format: cell-based; settings: 10 μM, 4 hr
Description: (§3) FIGS. 7A-7H illustrate the finding that similar death-inducing effects are observed in other triple negative cells lines BT-549 and Hs578T. […] FIG. 7D represents a graphical quantification of caspase3/7 activation by 3D in BT-549. […] FIG. 7H represents a graphical quantification of caspase3/7 activation by 3D in HS-578T.
(§4) In order to explore the broader effects of 3D in the killing of TNBC cells, the experiments reported in Example 2 were repeated in 2 additional cells lines BT-549 and Hs578T.

[3] = test system: HS-578T TNBC cell line; assay: Caspase 3/7 activation in Hs578T cells; format: cell-based; settings: 10 μM, 4 hr
Description: as §3, §4

[4] = test system: MDA-MB-231 cells; assay: Quantitative annexin V death assay (flow cytometry) in MDA-MB-231 cells; format: cell-based, human; settings: n=4-7; for total annexin V-positive cells: DMSO 13.5±2.2%; for live cell population: DMSO 86.4±2.2%
Description: To confirm what type of cell death was responsible for the observed activity, a quantitative annexin V death assay was performed to quantify the amount of necrosis (non-specific toxicity) vs apoptosis (programmed cell death) induced by compound 3D. […] Compound 3D decreased live cell population from 86.4±2.2% (DMSO) to 48.1±3.0% (3D: p<0.001) and increased total annexin V-positive cells from 13.5±2.2% (DMSO) to 51.4±3.1% (3D: p<0.001).

[5] = test system: MDA-MB-231 cells; assay: Cell morphology under phase contrast microscope, MDA-MB-231 cells; format: cell-based, human
Description: FIGS. 2B-2G are images of MDA-MB-231 cells treated with DMSO (control), NS-123 and 3D (FIGS. 2B, 2D and 2F) under a phase contrast microscope (10×) and apoptosis profiles for the respective images (FIGS. 2C, 2E and 2G) determined using flow cytometry.
To further investigate the type of cell death induced by treatment of TNBC cells with 3D, its activity was compared to the original parent radiosensitizing compound NS-123 (4-bromo-3-nitrophenyl propan-1-one). FIG. 2A depicts the chemical structures of both the parent NS-123 (left) and compound 3D (right) highlighting the substitution with iodide and sulfonyl moieties in 3D structure compared to a bromide and carbonyl in the original radiosensitizing NS-123.

[6] = test system: MDA-MB-231 cells; assay: Colony formation of MDA-MB-231 cells with and without radiation; format: cell-based, human; settings: 2 Gray radiation dose
Description: FIG. 1A is a set of images illustrating colonies of MDA-MB-231 cells exposed to DMSO (control) and compound 3D (10 μM, 4 hrs).
FIG. 1B reports the results depicted in FIG. 1A as a bar graph.
Compound 3D was previously shown to radiosensitize ER-positive breast cancer and prostate cancer cells (U.S. Pat. No. 8,541,476). This compound was then tested to see if it would radiosensitize aggressive TNBC cells such as MDA-MB-231.

[7] = test system: MDA-MB-231 cells; assay: Caspase 3/7 activity assay in MDA-MB-231 cells; format: cell-based, human; settings: for caspase 3/7 positive cells: DMSO 6.4±1.1%, n=3
Description: To identify mechanisms involved in the apoptotic death induced by compound 3D the iodine group (3D) was substituted by a fluorine group (3C) and a caspase 3/7 activity assay kit was utilized, which detects downstream effector apoptosis-causing caspases to assess death of TNBC cells. […] Quantitatively, 49.5±8.3% of cells were caspase 3/7 positive when treated with compound 3D compared to only 6.4±1.1% in the DMSO control group p<0.005 (FIG. 3D).
Further substitution experiments were conducted, replacing the para iodine with chlorine or bromine, as well as experiments wherein the sulfone was removed. To help identify mechanisms involved in the apoptotic death induced by compound 3D, the iodine group was substituted with chlorine or bromine. A caspase 3/7 activity assay kit was used to detect downstream effector apoptosis-causing caspases to assess death of TNBC cells. […] Additionally, when a compound was generated lacking the sulfonyl group, all cytotoxic effects of 3D on TNBC cells was abolished.

[8] = test system: MCF-10A (normal mammary cells); assay: Annexin V assay in normal MCF-10A mammary cells; format: cell-based; settings: normal MCF-10A cells, 10 μM, n=5
Description: (§5) The effects of compound 3D on survival of MCF-10A (normal mammary cells) were thus examined.

[9] = test system: MCF-10A cells co-cultured with MDA-MB-231 cells; assay: Co-culture of MCF-10A and MDA-MB-231 cells, fluorescence microscopy; format: cell-based, human; settings: 1:1 MCF-10A (mcherry red) and MDA-MB-231 (GFP-green); 10 μM, 4 hrs; n=3
Description: To validate the selective nature of 3D towards cancer cells, normal human mammary cells were co-cultured (MCF-10A) with human TNBC cells (MDA-MB-231) in the same culture dish (FIG. 4B) and incubated with 3D to assess the compound's selectivity. This experiment was done by plating a 1:1 ratio of MCF-10A cells (mcherry red) and MDA-MB-231 cells (GFP-green) and challenging them with DMSO or 3D (10 μM) for 4 hrs as described in Example 2. Following the treatments, pictures were acquired at 20× using the EVOS-Fl microscope. […] This co-culture was repeated 3 separate times on different passages (n=3).

[10] = test system: MCF-10A cells; assay: ROS detection (Muse oxidative stress kit) in normal MCF-10A cells; format: cell-based, human; settings: 10 μM, 4 hrs, p=0.9
Description: as §1, §2

[11] = test system: ATM (P-ATM ser1981); assay: Western blot of ATM phosphorylation in MDA-MB-231 cells; format: cell-based, human; settings: 4 hr treatment
Description: (§6) Effects of 3D on DNA damage in MDA-MB-231 cells was compared to a matching dose of DMSO vehicle.

[12] = test system: H2AX (P-H2AX ser139); assay: Western blot of H2AX phosphorylation in MDA-MB-231 cells; format: cell-based, human; settings: 4 hr treatment
Description: as §6

[13] = test system: MCF-10A (normal mammary cells); assay: Cell morphology of normal MCF-10A cells after treatment; format: cell-based; settings: 10 μM, 4 hrs
Description: as §5

[14] = test system: ER-positive breast cancer cells; settings: U.S. Pat. No. 8,541,476; cited from earlier work
[15] = test system: prostate cancer cells; settings: U.S. Pat. No. 8,541,476; cited from earlier work

For `O=[N+]([O-])c1ccccc1I` [1-iodo-2-nitrobenzene, reference compound], the “ROS accumulation in TNBC cells” value [1] was “inactive”, the “caspase 3/7 activation” value [2] was “inactive” and the “caspase 3/7 activation” value [3] was “inactive”.
In the case of `CCC(=O)c1ccc(Br)c([N+](=O)[O-])c1` [NS-123, 4-bromo-3-nitrophenyl propan-1-one, reference compound], the “total annexin V-positive cells” value [4] is reported as 11.6±2.4%, the live cell population [4] is reported as 88.3±2.4% and the “cell appearance under phase contrast microscope (10×)” value [5] is reported as “normal healthy features”.
In the case of `CCS(=O)(=O)c1ccc(I)c([N+](=O)[O-])c1` [Compound 3D, 4-(Ethylsulfonyl)-1-iodo-2-nitrobenzene], the “radiosensitizing effect on colony formation” value [6] is reported as “failed to enhance this action further; also recorded: no radiosensitizing effects”, the “total annexin V-positive cells” value [4] is reported as 51.4±3.1% and the live cell population [4] is reported as 48.1±3.0%. For the same compound, the “apoptosis / killing of TNBC cells by caspase 3/7 activation” value [7] was “induced specific caspase 3/7 activation; also recorded: high rates of apoptosis”, the early apoptosis population ([7]; DMSO 0.7±0.1%) was 0.9±0.2% and the “caspase 3/7-positive cells in late apoptosis phase” value ([7]; DMSO 5.8±1.0%) was 47.4±8.5%. For the same compound, the “caspase 3/7 positive cells” value [7] was 49.5±8.3%, the total apoptosis ([8]; DMSO 12.7±5.3%) was 12.2±3.2% and the cell viability ([8]; DMSO 85.6±5.9%) was 86.9±3.3%. The “selectivity of apoptotic death in co-culture” value [9] was “apoptotic death selectively occurred in the green cells (TNBC) while the red cells (normal) remained healthy”, the “ROS accumulation in TNBC cells” value [1] was “significantly raised the levels of ROS” and the “increase in ROS accumulation compared to DMSO” value ([1]; p=0.00005) was ~3 fold. For the same compound, the “ROS accumulation in normal cells” value [10] was “lacking any significant effects; also recorded: no significant increase”, the “total ATM” value [11] was “remains unchanged” and the “phosphorylated levels of ATM (P-ATM ser1981)” value ([11]; vs DMSO) was “significant increase; also recorded: induction”. The “total H2AX” value [12] was “increased slightly”, the “phosphorylated levels of H2AX (P-H2AX ser139)” value ([12]; vs DMSO) was “significant increase; also recorded: induction” and the “caspase 3/7 activation” value [2] was “increased caspase 3/7 activation; also recorded: induced an activated caspase-3/7 population”. For the same compound, the “caspase 3/7 activation” value [3] was “increased caspase 3/7 activation”, the “cell appearance under phase contrast microscope (10×)” value [5] was “rounded and unhealthy; also recorded: noticeably misshapen” and the “effect on morphology / health of normal cells” value [13] was “morphology remains intact; also recorded: no observable effect on the health of non-TNBC cells”. For the same compound, the radiosensitization [14] was “radiosensitize” and the radiosensitization [15] was “radiosensitize”.
With `CCS(=O)(=O)c1ccc(F)c([N+](=O)[O-])c1` [Compound 3C, 4-(Ethylsulfonyl)-1-fluoro-2-nitrobenzene] the “apoptosis / killing of TNBC cells by caspase 3/7 activation” value [7] was “very low rates of apoptosis” and the “caspase 3/7 positive cells” value [7] was 7.9±3.0%.
